The record followed here is patent publication US10253039B2, “Inhibitors of bacterial DNA gyrase with efficacy against gram-negative bacteria” (priority 2014, dated 2019).

Common to all, as to assay type: cell-based
The test system of one experiment is E. coli BW25113. Kind of experiment: MIC, microdilution in 96-well plates. The note with it: Escherichia coli, read-out: MIC. The procedure, abridged: (§1)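 Inoculum 1:10000 (LB, log-phase subculture). Triplicate twofold dilutions plus DMSO column. 37° C., shaken, 16-18 h. Lowest non-turbid well = MIC. CLSI method.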
In general terms: Broth dilution looks for growth in wells or tubes with falling amounts of substance.

Another experiment has as its system Edwardsiella tarda. Kind of experiment: MIC, microdilution in 96-well plates. Put shortly:
as §1

The next experiment relates to E. coli MG1655. Kind of experiment: MIC, 20-strain panel. Particulars: Escherichia coli, read-out: MIC. The procedure, abridged: as §1
Another experiment concerns E. coli JW5503 (deltolC). Kind of experiment: MIC, 20-strain panel. Particulars: Escherichia coli. Put shortly:
as §1

Experiment [1] has as its system Salmonella enterica subsp. enterica typhimurium. Kind of experiment: MIC, 20-strain panel. Put shortly:
as §1

Experiment [2] has as its system Staphylococcus saprophyticus subsp. saprophyticus. Kind of experiment: MIC, 20-strain panel. The procedure, abridged: as §1
In experiment [3] the test system is Staphylococcus epidermidis. Kind of experiment: MIC, 20-strain panel. Put shortly:
as §1

A further experiment concerns Streptococcus pyogenes. In words: MIC, 20-strain panel. Put shortly:
as §1

The next experiment has as its system Streptococcus agalactiae. In words: MIC, 20-strain panel. The procedure, abridged: as §1
Experiment [4] concerns Staphylococcus aureus subsp. aureus. In words: MIC, 20-strain panel. Particulars: read-out: MIC. Put shortly:
as §1

The test system of another experiment is Shigella flexneri. Kind of experiment: MIC, 20-strain panel. The procedure, abridged:
as §1

Experiment [5] relates to Klebsiella pneumoniae subsp. pneumoniae. Kind of experiment: MIC, 20-strain panel. The procedure, abridged:
as §1

Where [6] appears, read: F: Salmonella enterica subsp. enterica Typhimurium.
The mark [7] stands for this setting: H: Staphylococcus aureus subsp. aureus.
The mark [8] stands for this setting: E: Klebsiella pneumoniae subsp. pneumoniae.
The mark [9] stands for this setting: Salmonella enterica subsp. enterica Typhimurium.
[10] abbreviates: Staphylococcus aureus subsp. aureus.
Setting [11] is: Klebsiella pneumoniae subsp. pneumoniae.

Converted amounts (≈) assume the structure as drawn. Read-outs that look alike come from different tables or passages of the source.

As to `O=S(=O)(N[C@@H]1CCN(Cc2ccc(-c3ccncc3)cc2)C1)c1cccc(C(F)(F)F)c1` [Compound 14], the minimum inhibitory concentration (MIC) in the experiment on E. coli BW25113 (BW25113, B: E. coli BW25113) is over 8 µg/mL; against Edwardsiella tarda (D: Edwardsiella tarda), over 8 µg/mL; with E. coli MG1655 (MG1655, A: E. coli MG1655), over 8 µg/mL; in the experiment with E. coli JW5503 (deltolC) (C: E. coli JW5503 (deltolC)), 2 µg/mL (≈ 4.33 µM); in experiment [1] (setting [6]), over 8 µg/mL; in experiment [2] it was over 8 µg/mL. Moreover, the minimum inhibitory concentration (MIC) (in [3]; in the experiment on Streptococcus pyogenes; in the experiment on Streptococcus agalactiae; in [4] (setting [7]); against Shigella flexneri (G: Shigella flexneri); in [5] (setting [8])) was over 8 µg/mL in each case.

With `CC(=O)c1cc(S(=O)(=O)N[C@@H]2CCN(Cc3ccc(OC(C)C)cc3)C2)ccc1C` [Compound 1], the minimal inhibitory concentration (MIC) in the experiment on E. coli BW25113 (BW25113, B: E. coli BW25113) is over 8 µg/mL; against Edwardsiella tarda (D: Edwardsiella tarda), over 8 µg/mL; in the experiment on E. coli MG1655 (MG1655, A: E. coli MG1655) it was over 8 µg/mL; in the experiment on E. coli JW5503 (deltolC) (C: E. coli JW5503 (deltolC)), over 8 µg/mL; in experiment [1] (setting [6]), over 8 µg/mL; in [2] it was over 8 µg/mL. The minimum inhibitory concentration (MIC) (in [3]; against Streptococcus pyogenes; with Streptococcus agalactiae; in experiment [4] (setting [7]); against Shigella flexneri (G: Shigella flexneri); in experiment [5] (setting [8])) was over 8 µg/mL each time.

Consider `CC(C)(C)Oc1ccc(CN2CC[C@@H](NS(=O)(=O)c3cccc(C(F)(F)F)c3)C2)cc1` [Compound 23], for which the minimum inhibitory concentration (MIC) in the experiment with E. coli BW25113 (BW25113, B: E. coli BW25113) was over 8 µg/mL; in the experiment with Edwardsiella tarda (D: Edwardsiella tarda), over 8 µg/mL; in the experiment on E. coli MG1655 (MG1655, A: E. coli MG1655), over 8 µg/mL; with E. coli JW5503 (deltolC) (C: E. coli JW5503 (deltolC)), 0.5 µg/mL (≈ 1.1 µM); in experiment [1] (setting [6]) it was over 8 µg/mL; in experiment [2], over 8 µg/mL. Besides, the MIC (in [3]; with Streptococcus pyogenes; against Streptococcus agalactiae; in experiment [4] (setting [7]); in the experiment with Shigella flexneri (G: Shigella flexneri); in experiment [5] (setting [8])) was over 8 µg/mL each time.

`CC(C)Oc1c(Cl)cc(CN2CC[C@@H](NS(=O)(=O)c3cccc(C(F)(F)F)c3)C2)cc1Cl` [Compound 98]: the MIC is over 8 µg/mL in the experiment with E. coli BW25113 (BW25113, B: E. coli BW25113); over 8 µg/mL against Edwardsiella tarda (D: Edwardsiella tarda); over 8 µg/mL with E. coli MG1655 (MG1655, A: E. coli MG1655); over 8 µg/mL in the experiment on E. coli JW5503 (deltolC) (C: E. coli JW5503 (deltolC)); over 8 µg/mL in [1] (setting [6]); over 8 µg/mL in experiment [2]. The MIC (in [3]; with Streptococcus pyogenes; against Streptococcus agalactiae; in experiment [4] (setting [7]); in the experiment on Shigella flexneri (G: Shigella flexneri); in [5] (setting [8])) was over 8 µg/mL each time.

For `CC(=O)c1cccc(S(=O)(=O)N[C@@H]2CCN(Cc3ccc(OC4CC4)cc3)C2)c1` [Compound 134], the MIC with E. coli BW25113 (BW25113, E. coli BW25113) was over 8 µg/mL; with Edwardsiella tarda, over 8 µg/mL; in the experiment on E. coli MG1655 (MG1655, E. coli MG1655), over 8 µg/mL; in the experiment with E. coli JW5503 (deltolC) (E. coli JW5503 (deltolC)) it was 4 µg/mL (≈ 9.65 µM); in experiment [1] (setting [9]) it was about 8 µg/mL (≈ 19.3 µM); in experiment [2] it was over 8 µg/mL. Besides, the MIC (in experiment [3]; against Streptococcus pyogenes; against Streptococcus agalactiae; in experiment [4] (setting [10]); in the experiment on Shigella flexneri; in [5] (setting [11])) was over 8 µg/mL throughout.

For `Cc1c(CN2CC[C@@H](NS(=O)(=O)c3cccc(OC(F)(F)F)c3)C2)cnn1-c1ccccc1` [Compound 144], the minimal inhibitory concentration (MIC) in the experiment on E. coli BW25113 (BW25113, E. coli BW25113) is over 8 µg/mL; against Edwardsiella tarda it was over 8 µg/mL; in the experiment on E. coli MG1655 (MG1655, E. coli MG1655) it was over 8 µg/mL; with E. coli JW5503 (deltolC) (E. coli JW5503 (deltolC)), 8 µg/mL (≈ 16.6 µM); in experiment [1] (setting [9]) it was over 8 µg/mL; in experiment [2] it was over 8 µg/mL. Besides, the minimum inhibitory concentration (MIC) (in experiment [3]; with Streptococcus pyogenes; in the experiment with Streptococcus agalactiae; in [4] (setting [10]); against Shigella flexneri; in [5] (setting [11])) was over 8 µg/mL throughout.

With `O=S(=O)(N[C@@H]1CCN(Cc2ccc(-c3ccccc3)cc2)C1)c1cccc(C(F)(F)F)c1` [Compound 27], the MIC in the experiment on E. coli BW25113 (BW25113, B: E. coli BW25113) was over 8 µg/mL; with Edwardsiella tarda (D: Edwardsiella tarda), over 8 µg/mL; with E. coli MG1655 (MG1655, A: E. coli MG1655), over 8 µg/mL; in the experiment with E. coli JW5503 (deltolC) (C: E. coli JW5503 (deltolC)), 0.5 µg/mL (≈ 1.09 µM); in experiment [1] (setting [6]), 4 µg/mL (≈ 8.69 µM); in [2], over 8 µg/mL. Further, the MIC is 8 µg/mL (≈ 17.4 µM) in [3]; 8 µg/mL (≈ 17.4 µM) in the experiment on Streptococcus pyogenes; over 8 µg/mL in the experiment with Streptococcus agalactiae; over 8 µg/mL in experiment [4] (setting [7]); over 8 µg/mL with Shigella flexneri (G: Shigella flexneri); over 8 µg/mL in [5] (setting [8]).

With `N#Cc1cccc(S(=O)(=O)N[C@@H]2CCN(Cc3ccc(-c4nccs4)cc3)C2)c1` [Compound 12], the MIC is over 8 µg/mL in the experiment on E. coli BW25113 (BW25113, B: E. coli BW25113); over 8 µg/mL in the experiment on Edwardsiella tarda (D: Edwardsiella tarda); over 8 µg/mL with E. coli MG1655 (MG1655, A: E. coli MG1655); 2 µg/mL (≈ 4.71 µM) against E. coli JW5503 (deltolC) (C: E. coli JW5503 (deltolC)); over 8 µg/mL in experiment [1] (setting [6]); over 8 µg/mL in experiment [2]. Moreover, the MIC (in [3]; against Streptococcus pyogenes; with Streptococcus agalactiae; in experiment [4] (setting [7]); against Shigella flexneri (G: Shigella flexneri); in experiment [5] (setting [8])) was over 8 µg/mL in each case.

Turning to `Cc1ccc(S(=O)(=O)N[C@@H]2CCN(Cc3ccc(OC(C)C)cc3)C2)cc1C#N` [Compound 161], the MIC was over 8 µg/mL in the experiment with E. coli BW25113 (BW25113, E. coli BW25113); over 8 µg/mL with Edwardsiella tarda; over 8 µg/mL with E. coli MG1655 (MG1655, E. coli MG1655); over 8 µg/mL in the experiment on E. coli JW5503 (deltolC) (E. coli JW5503 (deltolC)); over 8 µg/mL in [1] (setting [9]); over 8 µg/mL in experiment [2]. Besides, the MIC (in experiment [3]; in the experiment with Streptococcus pyogenes; with Streptococcus agalactiae; in experiment [4] (setting [10]); in the experiment with Shigella flexneri; in [5] (setting [11])) was over 8 µg/mL throughout.

As for `CC(C)Oc1ccc(CN2CC[C@@H](NS(=O)(=O)c3cccc(C(F)(F)F)c3)C2)cc1` [Compound 18], the minimum inhibitory concentration (MIC) is over 8 µg/mL in the experiment with E. coli BW25113 (BW25113, B: E. coli BW25113); over 8 µg/mL in the experiment with Edwardsiella tarda (D: Edwardsiella tarda); over 8 µg/mL in the experiment with E. coli MG1655 (MG1655, A: E. coli MG1655); 0.5 µg/mL (≈ 1.13 µM) in the experiment with E. coli JW5503 (deltolC) (C: E. coli JW5503 (deltolC)); 8 µg/mL (≈ 18.1 µM) in experiment [1] (setting [6]); over 8 µg/mL in experiment [2]. Moreover, the minimum inhibitory concentration (MIC) (in [3]; in the experiment on Streptococcus pyogenes; against Streptococcus agalactiae; in experiment [4] (setting [7]); with Shigella flexneri (G: Shigella flexneri); in experiment [5] (setting [8])) was over 8 µg/mL throughout.

Take `N#Cc1cc(S(=O)(=O)N[C@@H]2CCN(Cc3ccc(OC4CC4)cc3)C2)ccc1Cl` [Compound 119]: the MIC is over 8 µg/mL with E. coli BW25113 (BW25113, B: E. coli BW25113); over 8 µg/mL against Edwardsiella tarda (D: Edwardsiella tarda); over 8 µg/mL in the experiment on E. coli MG1655 (MG1655, A: E. coli MG1655); over 8 µg/mL against E. coli JW5503 (deltolC) (C: E. coli JW5503 (deltolC)); over 8 µg/mL in [1] (setting [6]); over 8 µg/mL in experiment [2]. The MIC (in experiment [3]; in the experiment with Streptococcus pyogenes; against Streptococcus agalactiae; in [4] (setting [7]); with Shigella flexneri (G: Shigella flexneri); in [5] (setting [8])) was over 8 µg/mL throughout.

In the case of `O=S(=O)(N[C@@H]1CCN(Cc2ccc(OC3CC3)cc2)C1)c1cc(C(F)(F)F)ccc1F` [Compound 168], the minimal inhibitory concentration (MIC) in the experiment on E. coli BW25113 (BW25113, E. coli BW25113) is over 8 µg/mL; against Edwardsiella tarda, over 8 µg/mL; in the experiment on E. coli MG1655 (MG1655, E. coli MG1655) it was over 8 µg/mL; against E. coli JW5503 (deltolC) (E. coli JW5503 (deltolC)), 0.25 µg/mL (≈ 0.545 µM); in experiment [1] (setting [9]), about 8 µg/mL (≈ 17.4 µM); in experiment [2] it was over 8 µg/mL. Besides, the MIC in experiment [3] is over 8 µg/mL; against Streptococcus pyogenes, over 8 µg/mL; with Streptococcus agalactiae, over 8 µg/mL; in [4] (setting [10]), over 8 µg/mL; against Shigella flexneri it was about 8 µg/mL (≈ 17.4 µM); in experiment [5] (setting [11]), over 8 µg/mL.

Consider `Cc1ccc(S(C)(=O)=O)cc1S(=O)(=O)N[C@@H]1CCN(Cc2ccc(-c3ccccc3)cc2)C1` [Compound 73], for which the minimum inhibitory concentration (MIC) with E. coli BW25113 (BW25113, B: E. coli BW25113) was over 8 µg/mL; with Edwardsiella tarda (D: Edwardsiella tarda) it was over 8 µg/mL; with E. coli MG1655 (MG1655, A: E. coli MG1655), over 8 µg/mL; with E. coli JW5503 (deltolC) (C: E. coli JW5503 (deltolC)), 4 µg/mL (≈ 8.25 µM); in [1] (setting [6]), over 8 µg/mL; in [2], over 8 µg/mL. The minimum inhibitory concentration (MIC) (in experiment [3]; against Streptococcus pyogenes; with Streptococcus agalactiae; in experiment [4] (setting [7]); against Shigella flexneri (G: Shigella flexneri); in experiment [5] (setting [8])) was over 8 µg/mL in each case.

One may read the MIC as the lowest concentration found to suppress growth.
